Experiments:
[1] = tested on: relapsed multiple myeloma; assay: CREST phase 2 trial (024); assay type: in vivo, human
Text: (§1) Dexamethasone is a synthetic adrenocorticosteroid, CAS Registry No. 312-93-6, administered as tablets (DECADRON® Merck & Co., Inc.). 024: The CREST phase 2 trial (024) of either relapsed or refractory disease (subjects with first relapse, Jagannath et al. (2004) Br. J. Haematol. 127:165-172). […] 025: The SUMMIT phase 2 trial of patients with relapsed and refractory myeloma (subjects with second or greater relapse and refractory to their last prior therapy, Richardson P G, et al. (2003) N. Engl. J. Med. 348:2609-2617). […] Patients who received dexamethasone were treated for a maximum of 280 days by the following method: received up to four 5-week treatment cycles, followed by up to five 4-week treatment cycles. Within each 5-week treatment cycle, the patient received dexamethasone 40 mg/day PO, once daily on Days 1 to 4, 9 to 12, and 17 to 20 of a 35-day cycle. Within each 4-week treatment cycle, the patient received dexamethasone 40 mg/day PO once daily on Days 1 to 4 of a 28 day cycle. 040: Companion trial to 039 for patients who had more than 3 prior therapies. […] An additional 240 patients not from the −039 study, but who received at least 4 prior therapies also enrolled in this study.

[2] = tested on: relapsed and refractory myeloma; assay: SUMMIT phase 2 trial (025); assay type: in vivo, human; conditions: Study 025, bortezomib alone
Text: as §1

[3] = tested on: relapsed or refractory multiple myeloma; assay: APEX phase 3 trial (039); assay type: in vivo, human; conditions: for Median duration of response / Median time to response / One-year survival / complete response / complete response plus near-complete response / complete response, number of patients: 039; for response rate (complete plus partial response (CR+PR)): 039, EBMT criteria; for CR + PR + MR, (%) / Complete Response, (%) / Minor Response, (%) / Near CR: IF+, (%) / No Change, (%) / Not Evaluable, (%) / Overall Response Rate (CR + PR), (%) / Partial Response, (%) / Progressive Disease, (%) / SWOG Remission, (%): best confirmed response, N = 627
Text: as §1
The following section presents more detailed information on the −039 trial. During the study, disease response was assessed according to the European Group for Blood and Marrow Transplant (EBMT) criteria as presented in Table 4.
Response and date of disease progression was determined by computer algorithm that integrated data from a central laboratory and case report forms from each clinical site, according to the Blade criteria (Table 4). […] See Richardson et al., supra.
Disease progression was determined by Blade criteria as described in Table 4 and above. […] The date of progression was determined by computer algorithm. P-value from log-rank test adjusted by actual randomization factors. See Richardson et al., supra.

[4] = tested on: relapsed multiple myeloma; assay: Response in pharmacogenomic portion of the studies; assay type: in vivo, human; conditions: for CR, number of patients / IE, number of patients / MR, number of patients / NC, number of patients / PD, number of patients / PR, number of patients: pharmacogenomic patients, study 039; for CR+PR rate / overall response rate: pharmacogenomic set of patients
Text: Patient samples and response criteria from patients participating in these studies, as well as the following additional studies described below were sought for use in pharmacogenomic analyses to identify markers associated with patient survival. The samples were derived from the trials as described in Table 3 and in the following paragraphs.
For those patients who participated in the pharmacogenomic portion of the study, Table 6 summarizes the response rates and Table 7 summarizes the patients evaluated for survival. […]

myeloma cells = conditions: independent of their p53 status; cited from earlier work
xenograft tumor models = conditions: variety of xenograft tumor models; cited from earlier work
[5] = tested on: nuclear factor-κB (NF-κB) activation; conditions: cited from earlier work
[6] = tested on: cells that over express B-cell lymphoma 2 (Bcl-2); conditions: cells that over express Bcl-2; cited from earlier work
[7] = difference in rates, bortezomib vs dexamethasone
[8] = difference in response rates, bortezomib vs dexamethasone

With `CC(C)C[C@H](NC(=O)[C@H](Cc1ccccc1)NC(=O)c1cnccn1)B(O)O` [bortezomib, N (pyrazine)carbonyl-L-phenylalanine-L-leucine boronic acid] the “complete response (CR)+partial response (PR) rate” value ([1]; Study 024, bortezomib 1.0 mg/m^2) was 30%, the “complete response (CR)+partial response (PR) rate” value ([1]; Study 024, bortezomib 1.3 mg/m^2) was 38% and the “CR+PR rate” value [2] was 27%. The “overall response rate (CR+PR+minimal response (MR))” value [2] was 35%, the “CR+PR, number of patients” value ([2]; of 193 patients) was 53 patients and the “overall response (CR+PR+MR), number of patients” value ([2]; of 193 patients) was 67 patients. For the same compound, the “Median duration of response” value [3] was 8 months, the “Median time to response” value [3] was 43 days and the One-year survival [3] was 80%. For the same compound, the complete response [3] was 6%, the “complete response plus near-complete response” value [3] was 13% and the “complete response, number of patients” value [3] was 20 patients. For the same compound, the “response rate (complete plus partial response (CR+PR))” value [3] was 38%, the “CR + PR + MR, (%)” value [3] was “(46) %” and the “Complete Response, (%)” value [3] was “(6) %”. The “Minor Response, (%)” value [3] was “(8) %”, the “Near CR: IF+, (%)” value [3] was “(7) %” and the “No Change, (%)” value [3] was “(43) %”. The “Not Evaluable, (%)” value [3] was “(3) %”, the “Overall Response Rate (CR + PR), (%)” value [3] was “(38) %” and the “Partial Response, (%)” value [3] was “(32) %”. For the same compound, the “Progressive Disease, (%)” value [3] was “(7) %”, the “SWOG Remission, (%)” value [3] was “(15) %” and the “No Change, Difference” value [3, 7] was −0.04. The “Not Evaluable, Difference” value [3, 7] was −0.01, the “Progressive Disease, Difference” value [3, 7] was −0.06 and the “CR + PR + MR, Difference” value [3, 8] was 0.12. For the same compound, the “Complete Response, Difference” value [3, 8] was 0.06, the “Minor Response, Difference” value [3, 8] was −0.09 and the “Near CR: IF+, Difference” value [3, 8] was 0.06. For the same compound, the “Overall Response Rate (CR + PR), Difference” value [3, 8] was 0.20, the “Partial Response, Difference” value [3, 8] was 0.15 and the “SWOG Remission, Difference” value [3, 8] was 0.09. For the same compound, the “decrease in risk of death” value ([3]; first year after enrollment, bortezomib group vs dexamethasone) was 41%, the “CR, number of patients” value [4] was 5 and the “IE, number of patients” value [4] was 9. For the same compound, the “MR, number of patients” value [4] was 5, the “NC, number of patients” value [4] was 19 and the “PD, number of patients” value [4] was 13. For the same compound, the “PR, number of patients” value [4] was 25, the “CR+PR rate” value [4] was 32% and the overall response rate [4] was 42.3%. The “cytotoxicity to myeloma cells in culture” value (myeloma cells) was “directly cytotoxic”, the “cytotoxic activity in xenograft tumor models” value (xenograft tumor models) was “cytotoxic activity” and the NF-κB activation [5] was “inhibits”. For the same compound, the apoptosis [6] was “induces apoptosis”.
With `C[C@@H]1C[C@H]2[C@@H]3CCC4=CC(=O)C=C[C@]4(C)[C@@]3(F)[C@@H](O)C[C@]2(C)[C@@]1(O)C(=O)CO` [dexamethasone, Dexamethasone] the “Median duration of response” value [3] was 5.6 months, the “Median time to response” value [3] was 43 days and the One-year survival [3] was 66%. The complete response [3] was under 1%, the “complete response plus near-complete response” value [3] was 2% and the “complete response, number of patients” value [3] was 2 patients. The “response rate (complete plus partial response (CR+PR))” value [3] was 18%, the “CR + PR + MR, (%)” value [3] was “(35) %” and the “Complete Response, (%)” value [3] was “(<1) %”. The “Minor Response, (%)” value [3] was “(17) %”, the “Near CR: IF+, (%)” value [3] was “(<1) %” and the “No Change, (%)” value [3] was “(48) %”. For the same compound, the “Not Evaluable, (%)” value [3] was “(4) %”, the “Overall Response Rate (CR + PR), (%)” value [3] was “(18) %” and the “Partial Response, (%)” value [3] was “(17) %”. For the same compound, the “Progressive Disease, (%)” value [3] was “(13) %”, the “SWOG Remission, (%)” value [3] was “(5) %” and the “CR, number of patients” value [4] was 1. For the same compound, the “IE, number of patients” value [4] was 6, the “MR, number of patients” value [4] was 11 and the “NC, number of patients” value [4] was 16. For the same compound, the “PD, number of patients” value [4] was 22, the “PR, number of patients” value [4] was 13 and the “CR+PR rate” value [4] was 22.2%. It also gave an overall response rate [4] of 39.7%.

Source: US20160312309A1 (Millennium Pharmaceuticals, Inc., priority 2008, published 2016)
